{"source": "ChEMBL document CHEMBL2074328", "about": "“Up-regulation of transporters of the MRP family by drugs and toxins” (Toxicol Lett, 2001)", "key": {"[1]": {"target": "ATP-binding cassette sub-family C member 5 (Homo sapiens, UniProt O15440)", "sequence (O15440 whole entry)": "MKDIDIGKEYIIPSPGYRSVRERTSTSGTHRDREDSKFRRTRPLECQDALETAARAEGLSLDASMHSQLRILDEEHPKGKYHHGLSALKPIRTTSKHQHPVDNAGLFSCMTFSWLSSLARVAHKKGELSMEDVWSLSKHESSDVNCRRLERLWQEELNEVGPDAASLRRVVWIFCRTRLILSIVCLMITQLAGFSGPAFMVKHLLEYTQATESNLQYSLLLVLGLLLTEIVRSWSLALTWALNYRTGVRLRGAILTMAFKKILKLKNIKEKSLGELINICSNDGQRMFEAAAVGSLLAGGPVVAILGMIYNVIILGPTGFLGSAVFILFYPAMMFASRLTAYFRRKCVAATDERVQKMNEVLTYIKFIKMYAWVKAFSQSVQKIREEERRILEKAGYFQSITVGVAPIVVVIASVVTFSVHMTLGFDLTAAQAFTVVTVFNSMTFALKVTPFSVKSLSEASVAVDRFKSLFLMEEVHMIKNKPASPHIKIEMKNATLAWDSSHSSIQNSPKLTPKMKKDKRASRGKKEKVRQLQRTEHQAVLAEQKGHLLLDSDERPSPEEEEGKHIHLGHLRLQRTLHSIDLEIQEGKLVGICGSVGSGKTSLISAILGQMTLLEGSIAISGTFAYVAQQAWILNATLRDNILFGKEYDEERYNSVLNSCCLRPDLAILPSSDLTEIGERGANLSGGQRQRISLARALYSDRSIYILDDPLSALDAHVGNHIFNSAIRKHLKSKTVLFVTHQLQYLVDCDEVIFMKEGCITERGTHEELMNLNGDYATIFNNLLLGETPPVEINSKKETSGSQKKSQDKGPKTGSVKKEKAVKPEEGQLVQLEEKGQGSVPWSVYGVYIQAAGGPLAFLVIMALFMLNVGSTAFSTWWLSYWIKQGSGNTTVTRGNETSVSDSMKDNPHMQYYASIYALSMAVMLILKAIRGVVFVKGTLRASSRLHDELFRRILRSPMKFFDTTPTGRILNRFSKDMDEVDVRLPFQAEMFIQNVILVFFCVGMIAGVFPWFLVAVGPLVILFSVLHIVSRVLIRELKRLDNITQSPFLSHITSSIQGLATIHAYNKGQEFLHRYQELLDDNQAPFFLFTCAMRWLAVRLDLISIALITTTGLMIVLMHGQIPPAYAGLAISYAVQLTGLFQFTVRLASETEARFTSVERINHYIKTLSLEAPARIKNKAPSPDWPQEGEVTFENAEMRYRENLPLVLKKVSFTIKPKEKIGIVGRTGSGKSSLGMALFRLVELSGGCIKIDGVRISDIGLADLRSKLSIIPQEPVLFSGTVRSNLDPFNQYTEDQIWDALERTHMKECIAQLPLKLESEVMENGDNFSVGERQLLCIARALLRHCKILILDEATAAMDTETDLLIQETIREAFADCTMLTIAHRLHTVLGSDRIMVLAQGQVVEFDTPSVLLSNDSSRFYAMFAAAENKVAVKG", "test": "(§1) TP_TRANSPORTER: RT-PCR in HepG2 cells", "type": "functional, cell-based"}, "[2]": {"target": "T1, ATP-binding cassette sub-family C member 2 (Rattus norvegicus, UniProt Q63120)", "test": "TP_TRANSPORTER: Western blot, primary hepatocytes", "type": "functional, cell-based, Hepatocyte"}, "[3]": {"target": "T2, ATP-binding cassette sub-family C member 2 (Homo sapiens, UniProt Q92887)", "T2 sequence (Q92887 whole entry)": "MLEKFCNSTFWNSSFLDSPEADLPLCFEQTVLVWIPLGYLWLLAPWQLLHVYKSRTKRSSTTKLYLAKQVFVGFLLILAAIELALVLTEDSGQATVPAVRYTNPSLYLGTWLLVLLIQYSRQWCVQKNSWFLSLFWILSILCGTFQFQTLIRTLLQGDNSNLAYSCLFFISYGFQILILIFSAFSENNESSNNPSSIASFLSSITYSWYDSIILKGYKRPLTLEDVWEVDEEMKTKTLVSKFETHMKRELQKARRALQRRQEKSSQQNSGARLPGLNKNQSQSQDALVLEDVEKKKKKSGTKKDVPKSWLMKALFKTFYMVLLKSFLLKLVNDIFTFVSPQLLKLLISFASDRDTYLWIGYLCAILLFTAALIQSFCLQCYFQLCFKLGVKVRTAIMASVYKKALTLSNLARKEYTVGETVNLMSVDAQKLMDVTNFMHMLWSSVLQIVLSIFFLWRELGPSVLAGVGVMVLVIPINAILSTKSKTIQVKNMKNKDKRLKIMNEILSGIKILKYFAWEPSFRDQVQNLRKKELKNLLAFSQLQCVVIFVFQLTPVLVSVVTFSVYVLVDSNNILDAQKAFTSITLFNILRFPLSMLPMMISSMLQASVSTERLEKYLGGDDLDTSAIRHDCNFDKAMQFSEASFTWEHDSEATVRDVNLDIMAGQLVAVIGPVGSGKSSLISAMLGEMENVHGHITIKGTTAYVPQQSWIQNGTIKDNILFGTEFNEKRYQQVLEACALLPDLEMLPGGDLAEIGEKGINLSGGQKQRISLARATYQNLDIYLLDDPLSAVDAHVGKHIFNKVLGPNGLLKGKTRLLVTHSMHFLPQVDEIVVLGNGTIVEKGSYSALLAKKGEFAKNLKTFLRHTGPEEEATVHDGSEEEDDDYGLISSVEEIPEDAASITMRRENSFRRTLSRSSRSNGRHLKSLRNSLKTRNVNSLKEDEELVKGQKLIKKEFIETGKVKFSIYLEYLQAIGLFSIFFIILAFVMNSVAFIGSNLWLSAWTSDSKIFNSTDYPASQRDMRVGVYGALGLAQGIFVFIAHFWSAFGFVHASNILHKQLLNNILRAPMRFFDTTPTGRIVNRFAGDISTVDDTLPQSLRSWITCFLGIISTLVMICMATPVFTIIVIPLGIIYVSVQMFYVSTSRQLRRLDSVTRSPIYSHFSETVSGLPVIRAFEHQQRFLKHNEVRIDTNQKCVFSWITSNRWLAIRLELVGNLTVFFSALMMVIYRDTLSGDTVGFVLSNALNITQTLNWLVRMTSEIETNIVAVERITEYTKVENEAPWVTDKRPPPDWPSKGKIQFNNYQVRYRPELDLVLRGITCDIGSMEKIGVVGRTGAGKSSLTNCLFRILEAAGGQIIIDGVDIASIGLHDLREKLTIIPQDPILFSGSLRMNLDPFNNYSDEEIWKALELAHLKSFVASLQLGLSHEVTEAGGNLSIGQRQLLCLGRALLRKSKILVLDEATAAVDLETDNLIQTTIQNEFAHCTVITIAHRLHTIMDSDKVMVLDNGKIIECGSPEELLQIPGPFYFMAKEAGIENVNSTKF", "test": "TP_TRANSPORTER: Northern blot from HepG2 cells", "type": "functional, cell-based"}, "[4]": {"target": "T1, ATP-binding cassette sub-family C member 2", "test": "TP_TRANSPORTER: Northern blot from primary hepatocytes", "type": "functional, cell-based, Hepatocyte"}, "[5]": {"target": "Multidrug resistance associated protein (Homo sapiens) (UniProt Q96QA9)", "test": "as §1", "type": "functional, cell-based"}, "[6]": {"target": "T3, Multidrug resistance-associated protein 1 (Homo sapiens, UniProt P33527)", "T3 sequence (P33527 whole entry)": "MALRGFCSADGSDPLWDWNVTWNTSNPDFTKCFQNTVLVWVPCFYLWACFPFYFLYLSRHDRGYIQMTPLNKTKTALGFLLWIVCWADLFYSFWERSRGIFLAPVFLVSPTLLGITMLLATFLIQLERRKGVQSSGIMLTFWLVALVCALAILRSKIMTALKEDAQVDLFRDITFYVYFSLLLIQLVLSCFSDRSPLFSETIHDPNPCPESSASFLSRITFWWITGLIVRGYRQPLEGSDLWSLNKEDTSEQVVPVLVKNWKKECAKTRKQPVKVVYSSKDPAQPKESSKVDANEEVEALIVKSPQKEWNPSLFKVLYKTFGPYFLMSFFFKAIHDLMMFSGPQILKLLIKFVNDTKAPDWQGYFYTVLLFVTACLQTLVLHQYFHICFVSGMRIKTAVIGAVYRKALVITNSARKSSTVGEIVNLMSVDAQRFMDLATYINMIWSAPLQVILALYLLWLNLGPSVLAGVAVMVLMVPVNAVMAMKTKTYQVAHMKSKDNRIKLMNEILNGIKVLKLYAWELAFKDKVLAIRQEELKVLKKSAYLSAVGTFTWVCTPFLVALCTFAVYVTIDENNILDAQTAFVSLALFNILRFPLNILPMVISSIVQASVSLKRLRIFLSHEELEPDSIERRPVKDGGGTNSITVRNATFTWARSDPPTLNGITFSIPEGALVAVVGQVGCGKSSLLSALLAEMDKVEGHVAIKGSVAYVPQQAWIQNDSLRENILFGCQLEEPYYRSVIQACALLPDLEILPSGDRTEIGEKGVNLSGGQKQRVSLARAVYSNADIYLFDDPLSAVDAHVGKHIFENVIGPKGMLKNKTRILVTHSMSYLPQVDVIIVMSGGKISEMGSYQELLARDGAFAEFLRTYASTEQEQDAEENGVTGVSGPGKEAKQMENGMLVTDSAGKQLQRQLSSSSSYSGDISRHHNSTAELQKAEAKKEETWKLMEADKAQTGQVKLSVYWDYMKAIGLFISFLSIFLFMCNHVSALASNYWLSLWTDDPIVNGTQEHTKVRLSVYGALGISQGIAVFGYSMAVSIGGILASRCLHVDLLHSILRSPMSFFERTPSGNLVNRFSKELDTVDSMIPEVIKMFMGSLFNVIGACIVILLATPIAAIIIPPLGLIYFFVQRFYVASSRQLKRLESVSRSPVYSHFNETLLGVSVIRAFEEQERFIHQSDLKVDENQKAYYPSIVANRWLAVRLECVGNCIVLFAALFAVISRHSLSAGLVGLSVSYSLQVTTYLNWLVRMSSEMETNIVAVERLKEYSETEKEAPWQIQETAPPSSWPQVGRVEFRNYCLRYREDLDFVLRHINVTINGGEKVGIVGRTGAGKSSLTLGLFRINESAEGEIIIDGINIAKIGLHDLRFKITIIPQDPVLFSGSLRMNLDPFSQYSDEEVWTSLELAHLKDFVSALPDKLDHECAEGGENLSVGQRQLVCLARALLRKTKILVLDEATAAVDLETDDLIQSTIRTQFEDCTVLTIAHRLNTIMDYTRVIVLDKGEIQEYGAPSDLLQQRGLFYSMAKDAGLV", "test": "TP_TRANSPORTER: Northern blot from MCF-7 cells", "type": "functional, cell-based", "settings": "mcf7"}, "[7]": {"target": "T3, Multidrug resistance-associated protein 1", "test": "TP_TRANSPORTER: Western blot, MCF-7 cells", "type": "functional, cell-based", "settings": "mcf7"}, "[8]": {"target": "T2, ATP-binding cassette sub-family C member 2", "test": "as §1", "type": "functional, cell-based"}}}
{"compound": "CC(=O)Nc1ccc2c(c1)Cc1ccccc1-2", "note": "[2-ACETYLAMINOFLUORENE]", "values": [{"measurement": "Activity", "setting": "[1]", "value": "inducer [+]"}, {"measurement": "Activity", "setting": "[2]", "value": "inducer [+]"}, {"measurement": "Activity", "setting": "[3]", "value": "inducer [+]"}, {"measurement": "Activity", "setting": "[4]", "value": "inducer [+]"}, {"measurement": "Activity", "setting": "[5]", "value": "inducer [+]"}]}
{"compound": "C[C@@H]1C[C@H]2[C@@H]3CCC4=CC(=O)C=C[C@]4(C)[C@@]3(F)[C@@H](O)C[C@]2(C)[C@@]1(O)C(=O)CO", "note": "[DEXAMETHASONE]", "values": [{"measurement": "Activity", "setting": "[2]", "value": "inducer [+]"}, {"measurement": "Activity", "setting": "[4]", "value": "inducer [+]"}]}
{"compound": "CC(C)(C)c1cc(O)ccc1O", "note": "[E319]", "values": [{"measurement": "Activity", "setting": "[6]", "value": "inducer [+]"}, {"measurement": "Activity", "setting": "[7]", "value": "inducer [+]"}]}
{"compound": "CCC1(c2ccccc2)C(=O)NC(=O)NC1=O", "note": "[PHENOBARBITAL]", "values": [{"measurement": "Activity", "setting": "[3]", "value": "inducer [+]"}]}
{"compound": "CO[C@H]1/C=C/O[C@@]2(C)Oc3c(C)c(O)c4c(O)c(c(/C=N/N5CCN(C)CC5)c(O)c4c3C2=O)NC(=O)/C(C)=C\\C=C\\[C@H](C)[C@H](O)[C@@H](C)[C@@H](O)[C@@H](C)[C@H](OC(C)=O)[C@@H]1C", "note": "[RIFAMPIN]", "values": [{"measurement": "Activity", "setting": "[1]", "value": "inducer [+]"}]}
{"compound": "CC[C@]1(O)C[C@@H]2CN(CCc3c([nH]c4ccccc34)[C@@](C(=O)OC)(c3cc4c(cc3OC)N(C)[C@H]3[C@@](O)(C(=O)OC)[C@H](OC(C)=O)[C@]5(CC)C=CCN6CC[C@]43[C@@H]65)C2)C1", "note": "[VINBLASTINE]", "values": [{"measurement": "Activity", "setting": "[6]", "value": "inducer [+]"}, {"measurement": "Activity", "setting": "[2]", "value": "inducer [+]"}, {"measurement": "Activity", "setting": "[4]", "value": "inducer [+]"}, {"measurement": "Activity", "setting": "[7]", "value": "inducer [+]"}]}
{"compound": "CISPLATIN [listing 1 of 2 here]", "values": [{"measurement": "Activity", "setting": "[1]", "value": "inducer [+]"}, {"measurement": "Activity", "setting": "[8]", "value": "inducer [+]"}, {"measurement": "Activity", "setting": "[2]", "value": "inducer [+]"}, {"measurement": "Activity", "setting": "[4]", "value": "inducer [+]"}]}
{"compound": "CISPLATIN [listing 2 of 2 here]", "values": [{"measurement": "Activity", "setting": "[5]", "value": "inducer [+]"}]}
